Several values for one entry are separate records, joined by “and”; a condition that tells them apart may be missing. Equal entries are not always repeated. Toxic doses and inconclusive results are not listed.

The test system of this test is L1210 leukemia ip in BDF1 mice, survival T/C. The test can be described thus: NCI In Vivo Anticancer Drug Screen. Data for tumor model L1210 Leukemia (intraperitoneal) in B6D2F1 (BDF1) mice. To be noted: endpoint: mean survival time, higher = longer survival. The method, boiled down: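 Value reflects the ratio of survival in compound-treated mice to survival in vehicle-treated controls, with both groups carrying the same transplanted tumor.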

Where [1] appears, read: dose: 50.0 mg/kg/injection, schedule: Q01DX009 (ip), vehicle: saline.
Setting [2] is: dose: 100.0 mg/kg/injection, schedule: Q01DX009 (ip), vehicle: saline.

In the case of `CN(N)P(=S)(c1ccccc1)N(C)N`, the T/C is 97 % of control (dose: 6.25 mg/kg/injection, schedule: Q01DX009 (ip), vehicle: Klucel (hydroxypropylcellulose) (HPC)); 100 % of control (dose: 12.5 mg/kg/injection, schedule: Q01DX009 (ip), vehicle: Klucel (hydroxypropylcellulose) (HPC)); 97 % of control (dose: 12.5 mg/kg/injection, schedule: Q04DX003 (ip), vehicle: Klucel (hydroxypropylcellulose) (HPC)); 94 % of control (dose: 25.0 mg/kg/injection, schedule: Q01DX009 (ip), vehicle: Klucel (hydroxypropylcellulose) (HPC)); 92 % of control (dose: 25.0 mg/kg/injection, schedule: Q04DX003 (ip), vehicle: Klucel (hydroxypropylcellulose) (HPC)).
Consider `Nc1nc(C=O)c(CCc2ccccc2)c(=O)[nH]1`, for which the T/C was 100 % of control (dose: 100.0 mg/kg/injection, schedule: Q04DX003 (ip), vehicle: saline with Tween-80) and 97 % of control (dose: 200.0 mg/kg/injection, schedule: Q04DX003 (ip), vehicle: saline with Tween-80).
`O=C(Nc1ccc(NC2=NCCN2)cc1)c1ccc(C(=O)Nc2ccc(NC3=NCCN3)cc2)c([N+](=O)[O-])c1`: the T/C was 92 % of control (dose: 1.88 mg/kg/injection, schedule: Q01DX Z (ip), vehicle: saline); 97 % of control (dose: 3.75 mg/kg/injection, schedule: Q01DX Z (ip), vehicle: saline); 106 % of control (dose: 7.5 mg/kg/injection, schedule: Q01DX Z (ip), vehicle: saline); 94 % of control (dose: 7.5 mg/kg/injection, schedule: Q01DX Z (oral), vehicle: saline); 110 % of control and 89 % of control (dose: 15.0 mg/kg/injection, schedule: Q01DX Z (ip), vehicle: saline); 95 % of control (dose: 15.0 mg/kg/injection, schedule: Q01DX Z (oral), vehicle: saline). The T/C is, setting by setting: (dose: 30.0 mg/kg/injection, schedule: Q01DX Z (oral), vehicle: saline) 91 % of control; (dose: 60.0 mg/kg/injection, schedule: Q01DX Z (oral), vehicle: saline) 100 % of control.
As to `Cn1c(N)c(N=CC2CC=CCC2)c(=O)n(C)c1=O` (stereo not given), the T/C is, setting by setting: (dose: 50.0 mg/kg/injection, schedule: Q01DX001 (ip), vehicle: other) 103 % of control; (dose: 100.0 mg/kg/injection, schedule: Q01DX001 (ip), vehicle: other) 97 % of control; (dose: 200.0 mg/kg/injection, schedule: Q01DX001 (ip), vehicle: other) 92 % of control; (dose: 400.0 mg/kg/injection, schedule: Q01DX001 (ip), vehicle: other) 97 % of control.
In the case of `CC(=O)Nc1ccc2nc3ccc(NC(C)=O)cc3[n+](-c3ccccc3)c2c1`, the T/C is 105 % of control (dose: 0.25 mg/kg/injection, schedule: Q01DX Z (ip), vehicle: methylcellulose (MC)); 121 % of control (dose: 0.5 mg/kg/injection, schedule: Q01DX Z (ip), vehicle: methylcellulose (MC)); 111 % of control (dose: 0.75 mg/kg/injection, schedule: Q01DX009 (ip), vehicle: saline); 89 % of control (dose: 1.25 mg/kg/injection, schedule: Q#A X Z (ip), vehicle: saline); 114 % of control (dose: 1.5 mg/kg/injection, schedule: Q01DX009 (ip), vehicle: saline); 98 % of control (dose: 2.5 mg/kg/injection, schedule: Q01DX Z (ip), vehicle: saline). In addition, the T/C reads like this: (dose: 2.5 mg/kg/injection, schedule: Q#A X Z (ip), vehicle: saline) 109 % of control; (dose: 3.0 mg/kg/injection, schedule: Q01DX009 (ip), vehicle: saline) 122 % of control; (dose: 4.4 mg/kg/injection, schedule: Q07DX Z (ip), vehicle: saline) 105 % of control; (dose: 5.0 mg/kg/injection, schedule: Q01DX Z (ip), vehicle: saline) 118 % of control; (dose: 5.0 mg/kg/injection, schedule: Q#A X Z (ip), vehicle: saline) 123 % of control; (dose: 6.0 mg/kg/injection, schedule: Q01DX009 (ip), vehicle: saline) 120 % of control. Also, the T/C is 111 % of control (dose: 7.5 mg/kg/injection, schedule: Q03DX Z (ip), vehicle: saline); 110 % of control (dose: 8.8 mg/kg/injection, schedule: Q07DX Z (ip), vehicle: saline); 97 % of control (dose: 10.0 mg/kg/injection, schedule: Q01DX009 (sc), vehicle: propolene glycol); 152 % of control (dose: 10.0 mg/kg/injection, schedule: Q01DX015 (ip), vehicle: propolene glycol); 150 % of control (dose: 12.5 mg/kg/injection, schedule: Q01DX Z (ip), vehicle: methylcellulose (MC)); 118 % of control (dose: 15.0 mg/kg/injection, schedule: Q03DX Z (ip), vehicle: saline). In addition, the T/C by setting is: (dose: 17.5 mg/kg/injection, schedule: Q07DX Z (ip), vehicle: saline) 115 % of control; (dose: 20.0 mg/kg/injection, schedule: Q01DX010 (sc), vehicle: propolene glycol) 96 % of control; (dose: 20.0 mg/kg/injection, schedule: Q01DX Z (ip), vehicle: saline) 123 % of control; (dose: 20.0 mg/kg/injection, schedule: Q#A X Z (ip), vehicle: saline) 180 % of control; (dose: 25.0 mg/kg/injection, schedule: Q01DX Z (ip), vehicle: methylcellulose (MC)) 166 % of control; (dose: 31.25 mg/kg/injection, schedule: Q01DX009 (ip), vehicle: saline) 164 % of control. Besides, the T/C is, setting by setting: (dose: 31.3 mg/kg/injection, schedule: Q01DX009 (ip), vehicle: saline) 161 % of control; (dose: 40.0 mg/kg/injection, schedule: Q01DX010 (sc), vehicle: propolene glycol) 102 % of control; (dose: 40.0 mg/kg/injection, schedule: Q01DX015 (ip), vehicle: propolene glycol) 172 % of control; (dose: 40.0 mg/kg/injection, schedule: Q01DX Z (ip), vehicle: saline) 172 % of control; under setting [1], 162 % of control; (dose: 50.0 mg/kg/injection, schedule: Q01DX Z (ip), vehicle: methylcellulose (MC)) 100 % of control. The T/C is 97 % of control (dose: 64.0 mg/kg/injection, schedule: Q01DX010 (iv), vehicle: saline); 98 % of control (dose: 80.0 mg/kg/injection, schedule: Q01DX009 (oral), vehicle: propolene glycol); 95 % of control (dose: 80.0 mg/kg/injection, schedule: Q01DX009 (sc), vehicle: propolene glycol); 206 % of control under setting [2]; 98 % of control (dose: 120.0 mg/kg/injection, schedule: Q01DX009 (oral), vehicle: propolene glycol); 159 % of control (dose: 120.0 mg/kg/injection, schedule: Q03DX Z (ip), vehicle: saline). Further, the T/C runs as follows: (dose: 128.0 mg/kg/injection, schedule: Q01DX010 (iv), vehicle: saline) 102 % of control; (dose: 175.0 mg/kg/injection, schedule: Q01DX001 (ip), vehicle: saline) 105 % of control; (dose: 222.0 mg/kg/injection, schedule: Q01DX Z (oral), vehicle: saline) 116 % of control; (dose: 256.0 mg/kg/injection, schedule: Q01DX010 (iv), vehicle: saline) 108 % of control; (dose: 265.0 mg/kg/injection, schedule: Q01DX001 (ip), vehicle: saline) 108 % of control; (dose: 270.0 mg/kg/injection, schedule: Q01DX009 (oral), vehicle: propolene glycol) 98 % of control. Moreover, the T/C was 120 % of control (dose: 333.0 mg/kg/injection, schedule: Q01DX Z (oral), vehicle: saline); 102 % of control (dose: 405.0 mg/kg/injection, schedule: Q01DX009 (oral), vehicle: propolene glycol); 112 % of control (dose: 480.0 mg/kg/injection, schedule: Q03DX Z (ip), vehicle: saline); 86 % of control (dose: 960.0 mg/kg/injection, schedule: Q03DX Z (ip), vehicle: saline).
In the case of `O=C1CCCC2C1C1(O)CCC2(O)c2cccc(O)c21` (stereo not given), the T/C was 109 % of control (dose: 6.25 mg/kg/injection, schedule: Q01DX009 (ip), vehicle: saline); 102 % of control (dose: 12.5 mg/kg/injection, schedule: Q01DX009 (ip), vehicle: saline); 101 % of control (dose: 25.0 mg/kg/injection, schedule: Q01DX009 (ip), vehicle: saline); 98 % of control under setting [1]; 96 % of control (dose: 100.0 mg/kg/injection, schedule: Q01DX001 (ip), vehicle: saline); 91 % of control under setting [2]. In addition, the T/C (dose: 200.0 mg/kg/injection, schedule: Q01DX001 (ip), vehicle: saline) was 103 % of control.
As to `CC(=O)Nc1cc(Cl)c([N+](=O)[O-])cc1C`, the T/C runs as follows: (dose: 100.0 mg/kg/injection, schedule: Q04DX002 (ip), vehicle: Klucel (hydroxypropylcellulose) (HPC)) 110 % of control; (dose: 200.0 mg/kg/injection, schedule: Q04DX002 (ip), vehicle: Klucel (hydroxypropylcellulose) (HPC)) 113 % of control; (dose: 400.0 mg/kg/injection, schedule: Q04DX002 (ip), vehicle: Klucel (hydroxypropylcellulose) (HPC)) 103 % of control.

The record behind these values is PubChem BioAssay AID248 (DTP/NCI, 2004).
